Where two headings read alike, the source gives them in different places.
Biological target: T1, band 3 (Homo sapiens, UniProt P02730)
T1 sequence (P02730 1-911): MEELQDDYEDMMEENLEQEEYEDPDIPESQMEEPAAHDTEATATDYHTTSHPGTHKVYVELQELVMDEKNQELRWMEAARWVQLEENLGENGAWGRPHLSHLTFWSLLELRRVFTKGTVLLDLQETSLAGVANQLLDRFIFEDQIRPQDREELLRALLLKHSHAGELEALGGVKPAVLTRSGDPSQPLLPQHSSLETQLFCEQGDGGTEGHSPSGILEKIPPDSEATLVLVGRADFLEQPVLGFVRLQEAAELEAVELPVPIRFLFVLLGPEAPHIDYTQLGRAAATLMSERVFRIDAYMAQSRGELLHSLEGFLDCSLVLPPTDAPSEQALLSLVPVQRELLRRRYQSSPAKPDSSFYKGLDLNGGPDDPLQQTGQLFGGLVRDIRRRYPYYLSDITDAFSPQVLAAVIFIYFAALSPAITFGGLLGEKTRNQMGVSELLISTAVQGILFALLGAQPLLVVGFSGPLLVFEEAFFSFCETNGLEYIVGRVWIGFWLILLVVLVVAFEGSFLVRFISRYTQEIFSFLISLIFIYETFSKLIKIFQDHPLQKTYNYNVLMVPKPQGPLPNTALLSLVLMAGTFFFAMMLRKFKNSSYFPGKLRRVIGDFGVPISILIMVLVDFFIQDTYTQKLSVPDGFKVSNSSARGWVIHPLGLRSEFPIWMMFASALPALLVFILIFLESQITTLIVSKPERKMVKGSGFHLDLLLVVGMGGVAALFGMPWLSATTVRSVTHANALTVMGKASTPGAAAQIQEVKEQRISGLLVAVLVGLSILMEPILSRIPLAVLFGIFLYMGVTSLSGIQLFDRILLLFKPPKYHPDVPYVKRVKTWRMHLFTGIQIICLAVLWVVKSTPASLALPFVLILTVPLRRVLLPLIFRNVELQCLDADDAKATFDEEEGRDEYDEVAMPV
Assay: 36Cl exchange flux inhibition in red blood cells, Dixon plots
Type: cell-based
Conditions: for Kd: read-out: Average KoI (SE)

[1] = exp 86, pHo 11.6, sucrose, Clo 30 mM
[2] = exp 86, pHo 11.6, sucrose, Clo 200 mM
[3] = exp N223, pHo 7.2, citrate, Clo 1.05 mM
[4] = exp N223, pHo 7.2, citrate, Clo 2.07 mM
[5] = exp N223, pHo 7.2, citrate, Clo 145 mM
[6] = exp N225, pHo 7.2, citrate, Clo 2.07 mM
[7] = exp N225, pHo 7.2, citrate, Clo 4.14 mM
[8] = exp N225, pHo 7.2, citrate, Clo 130 mM

[I-].[K+] [iodide, potassium iodide]
ID50 for iodide in the medium with low Cl- concentration (exp 84, pHo 8.0, 0°C, Hepes, Cli 130 mM, low Clo 0.9 mM): 2.05 mM | ID50 for iodide in the medium with low Cl- concentration (exp 85, pHo 7.2, 0°C, Hepes, Cli 133 mM, low Clo 0.3 mM): 1.80 mM | ID50 for iodide in the medium with low Cl- concentration (exp 86, pHo 11.6, 0°C, CAPS, Cli 295 mM, low Clo 30 mM): 63.3 mM | DS·Clo (Dixon slope times [Clo]) [1]: 0.2098 | Dixon slope (DS) for Io inhibition of Cl- exchange [1]: 0.00699 | High/low: DS·Clo at the highest [Clo] divided by that at the given [Clo] [1]: 1.12 | DS·Clo (Dixon slope times [Clo]) [2]: 0.2354 | Dixon slope (DS) for Io inhibition of Cl- exchange [2]: 0.00118 | ID50 for iodide in the medium with low Cl- concentration (exp 86, pHo 12.4, 0°C, CAPS, Cli 295 mM, low Clo 30 mM): 88.5 mM | DS·Clo (Dixon slope times [Clo]) (exp 86, pHo 12.4, Clo 30 mM): 0.3617 | Dixon slope (DS) for Io inhibition of Cl- exchange (exp 86, pHo 12.4, Clo 30 mM): 0.01206 | High/low: DS·Clo at the highest [Clo] divided by that at the given [Clo] (exp 86, pHo 12.4, Clo 30 mM): 1.08 | DS·Clo (Dixon slope times [Clo]) (exp 86, pHo 12.4, Clo 200 mM): 0.3918 | Dixon slope (DS) for Io inhibition of Cl- exchange (exp 86, pHo 12.4, Clo 200 mM): 0.001959 | ID50 for iodide in the medium with low Cl- concentration (exp 87, pHo 11.9, 0°C, CAPS, Cli 294 mM, low Clo 30 mM): 83.8 mM | ID50 for iodide in the medium with low Cl- concentration (exp 87, pHo 12.4, 0°C, CAPS, Cli 294 mM, low Clo 30 mM): 92.5 mM | DS·Clo (Dixon slope times [Clo]) (exp 87, pHo 12.4, Clo 30 mM): 0.3492 | Dixon slope (DS) for Io inhibition of Cl- exchange (exp 87, pHo 12.4, Clo 30 mM): 0.01164 | High/low: DS·Clo at the highest [Clo] divided by that at the given [Clo] (exp 87, pHo 12.4, Clo 30 mM): 0.81 | DS·Clo (Dixon slope times [Clo]) (exp 87, pHo 12.4, Clo 200 mM): 0.2824 | Dixon slope (DS) for Io inhibition of Cl- exchange (exp 87, pHo 12.4, Clo 200 mM): 0.001412 | ID50 for iodide in the medium with low Cl- concentration (exp 89, pHo 11.9, 0°C, CAPS, Cli 304 mM, low Clo 30 mM): 91.8 mM | ID50 for iodide in the medium with low Cl- concentration (exp 89, pHo 12, 0°C, No buffer, Cli 304 mM, low Clo 30 mM): 128.5 mM | DS·Clo (Dixon slope times [Clo]) [3]: 0.0854 | Dixon slope (DS) for Io inhibition of Cl- exchange [3]: 0.081 | High/low: DS·Clo at the highest [Clo] divided by that at the given [Clo] [3]: 3.96 | DS·Clo (Dixon slope times [Clo]) [4]: 0.1048 | Dixon slope (DS) for Io inhibition of Cl- exchange [4]: 0.0506 | High/low: DS·Clo at the highest [Clo] divided by that at the given [Clo] [4]: 3.22 | DS·Clo (Dixon slope times [Clo]) [5]: 0.338 | Dixon slope (DS) for Io inhibition of Cl- exchange [5]: 0.00233 | DS·Clo (Dixon slope times [Clo]) [6]: 0.0724 | Dixon slope (DS) for Io inhibition of Cl- exchange [6]: 0.0349 | High/low: DS·Clo at the highest [Clo] divided by that at the given [Clo] [6]: 3.66 | DS·Clo (Dixon slope times [Clo]) [7]: 0.0907 | Dixon slope (DS) for Io inhibition of Cl- exchange [7]: 0.0219 | High/low: DS·Clo at the highest [Clo] divided by that at the given [Clo] [7]: 2.92 | DS·Clo (Dixon slope times [Clo]) [8]: 0.2652 | Dixon slope (DS) for Io inhibition of Cl- exchange [8]: 0.00204 | 1/R, ratio of dissociation constants alkaline/neutral state (our value): 69 | apparent ID50 for I- as an inhibitor of Cl- exchange (pH 10.6, 1.65 mM [Clo]): 23.6 ± 2.1 mM | y intercept of ID50 for Io vs [Clo] (should give KoI) (pHi and pHo 7.2, 0°C, Cli ~150 mM, media with 5 mM Hepes, Fig. 5): 2.0 ± 0.2 mM | y intercept of Dixon slope for Io inhibition vs 1/[Clo] (pHo 7.2, 25 mM K3citrate plus sucrose replacing Cl-, Fig. 4B): 0.0017 kg Hb·s·mmol-1·mM-1 | y intercept of Dixon slope for Io inhibition vs 1/[Clo] (pHo 7.2, sucrose replacing Clo, Fig. 4A): 0.006 kg Hb·s·mmol-1·mM-1 | Kd (pHo 7.2, 0°C): 0.83 mM | Kd (pHo 8.0, 0°C): 0.45 mM | Kd (pHo 8.5, 0°C): 1.01 mM | Kd (pHo 8.66, 0°C): 1.26 mM | Kd (pHo 9.2, 0°C): 2.6 mM | Kd (pHo 9.9, 0°C): 5.63 mM | Kd (pHo 10, 0°C): 6.48 mM | Kd (pHo 10.6, 0°C): 18.4 mM | Kd (pHo 10.7, 0°C): 16.4 mM | Kd (pHo 11.6, 0°C): 35.8 mM | Kd (pHo 11.9, 0°C): 75.6 mM | Kd (pHo 12.4, 0°C): 73.4 mM | R = K++I/K+I, ratio of I- dissociation constants for neutral and alkaline forms (two-titratable-site fit to KoI data): 0.0145
